Experimental data as given in patent US6617136B2, “Biological sample processing methods and compositions that include surfactants” (3M Innovative Properties Company, priority 2001, dated 2003).

Tests used:
[1] = Laser stability / photobleaching of dye on laser exposure; format: physicochemical
Description: An 813-nm diode laser source at 1.2W (1.9A) (Opto Power Corp., Tucson, Ariz.) was used to heat a 10-μL volume of near-IR dye at a concentration (0.1 mg/mL for 785 WS, 0.2 mg/mL for SDA 8080) to yield a 35° C. rise in temperature. The laser was manually turned on long enough for the temperature in a 10-μL well to increase by 35° C. (1-3 seconds) and was manually turned off when that level was attained. The temperature data was obtained using a thermocouple in the well, and the transmittance data was obtained via a power meter whose signals were digitized and graphically interpreted.
In another experiment, the 10 μL well was used to see if the dye/surfactant mixture could withstand laser cycling over a period of 30 cycles. The laser power was systematically varied from 60° C. to 94° C., 30 times.
Unlike in Example 8, some dyes and dye/surfactant complexes undergo photodegradation when exposed to laser beam. […] Specifically, in the case of 785 WS/BRIJ-97, the addition of ascorbic acid (typically 5 mg/mL) helped reduce the amount of photobleaching from 100% to 20% after 30 cycles. In some circumstances, rapid/controlled photodegradation may be desired. […] This would allow DNA tags (fluorescent or vis/IR) to be monitored at the end of the PCR reaction.

AMPLITAQ DNA polymerase = biological target: T1, AMPLITAQ DNA polymerase (Thermus aquaticus, UniProt P19821); experiment: PCR amplification of PERV protease fragment in the presence of dye/surfactant mixture; format: biochemical; conditions: dye at 0.1 or 0.2 mg/mL, agarose gel
T1 construct: purchased Applied Biosystems, Foster City, Calif
T1 sequence (P19821 whole entry, the tested form may be a part): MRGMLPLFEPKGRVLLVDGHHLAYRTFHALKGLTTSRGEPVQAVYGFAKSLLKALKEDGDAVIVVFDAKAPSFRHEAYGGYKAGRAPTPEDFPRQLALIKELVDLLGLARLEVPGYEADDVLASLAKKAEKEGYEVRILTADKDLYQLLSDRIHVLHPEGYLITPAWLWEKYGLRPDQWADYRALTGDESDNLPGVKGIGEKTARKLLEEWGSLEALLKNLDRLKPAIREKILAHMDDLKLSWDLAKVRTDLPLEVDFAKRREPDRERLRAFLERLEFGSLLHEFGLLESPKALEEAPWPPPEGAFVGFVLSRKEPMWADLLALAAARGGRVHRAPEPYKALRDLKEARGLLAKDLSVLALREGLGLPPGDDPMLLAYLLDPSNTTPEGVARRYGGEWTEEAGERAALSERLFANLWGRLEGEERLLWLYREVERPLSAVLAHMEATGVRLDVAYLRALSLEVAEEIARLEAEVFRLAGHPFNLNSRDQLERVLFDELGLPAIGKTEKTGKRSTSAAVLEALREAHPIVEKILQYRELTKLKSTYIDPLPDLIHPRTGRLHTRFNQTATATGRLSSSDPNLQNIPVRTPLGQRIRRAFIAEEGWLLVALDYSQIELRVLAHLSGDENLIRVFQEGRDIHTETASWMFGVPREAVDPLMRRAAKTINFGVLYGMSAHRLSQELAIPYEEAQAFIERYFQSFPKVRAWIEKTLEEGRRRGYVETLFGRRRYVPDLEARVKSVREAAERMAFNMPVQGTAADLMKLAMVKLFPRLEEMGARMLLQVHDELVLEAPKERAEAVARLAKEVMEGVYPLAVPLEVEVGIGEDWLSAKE
Description: Typically, a fresh stock solution of 5 milligrams (mg) of a water-insoluble near-infrared dye (NIR dye) was dissolved in 50 microliters (μL) of dimethylsulfoxide (DMSO) and brought up in water to a final volume of 1 milliliter (mL). This was then diluted out to various concentrations of dye. The diluted dye (typically 0.2 mg/mL) was then added to a surfactant solution (typically 4 wt-%) to form a complex. The complex was added to a PCR reaction.
PCR reactions were set up for a conserved sequence (327 bp) in the protease region of the genome of porcine endogenous retrovirus using a plasmid containing the PERV protease fragment, a forward primer and a reverse primer designed using a primer express program from Applied Biosystems, and AMPLITAQ DNA polymerase cocktail (commercially available from Applied Biosystems, Foster City, Calif.) and cycled in a thermocycler (9700, Applied Biosystems). The PCR reactions were typically carried out in 25-μL volumes. The NIR dye/surfactant mixture was added to the PCR cocktail to give the desired concentration of dye and surfactant in a total volume of 25 μL. […]
In order to find out the optimum concentration of surfactant for PCR with NIR dye (785 WS and SDA 8080), the surfactant concentration in PCR reaction was varied from 0.1 wt-% to 4 wt-%. The PCR product formed was quantitated using DNA 7500 Labchip kit in Agilent 2100 Bioanalyzer (Agilent Inc, Paloalto, Calif.). […]
A variety of dyes (NIR dyes such as IR782, IR768, SDA 2141, SDA8327, IR 830 WS, fluorescent dyes like oligreen and visible dyes like dichlorophenol, indophenol, saffranin, crystal violet, and commercially available food coloring) at typical concentrations of 0.1 or 0.2 mg/mL were allowed to interact with 4 wt-% PLURONIC F127 and each mixture was added to the PCR cocktail. The reaction was set up to amplify PERV protease fragment as described in Example 2 and the products of the reaction were analyzed by agarose gel electrophoresis.

Molecule | amount of photobleaching ([1]; 785 WS/BRIJ-97 with ascorbic acid (typically 5 mg/mL), after 30 cycles) [%] | effect of antioxidant on dye absorbance ([1]; added to SDA 8080) | effect of antioxidant on photobleaching ([1]; added to virtually any of the surfactants tested with 785 WS) | effect of dye alone on PCR (AMPLITAQ DNA polymerase)
O=C1O[C@H]([C@@H](O)CO)C(O)=C1O [ascorbic acid] | 20 | destroyed the absorbance in the visible and near-IR region of the dye | reduced photobleaching significantly | –
CN(C)c1ccc(C(=C2C=CC(=[N+](C)C)C=C2)c2ccc(N(C)C)cc2)cc1 [crystal violet] | – | – | – | inhibited PCR
Cc1cc2nc3cc(C)c(N)cc3[n+](-c3ccccc3)c2cc1N.[Cl-] [saffranin] | – | – | – | inhibited PCR
dichlorophenol | – | – | – | inhibited PCR
